Assay results: patent US20110130450A1, “PRAVASTATIN EXTRACTION” (priority 2008, published 2011)

Assays:
Format in all cases: physicochemical
[1] = Multi stage cross-current back-extraction from isobutyl acetate at pH 6, distribution coefficient by HPLC; details: water/isobutyl acetate
Procedure: (§1) HPLC analysis was based on reversed phase liquid chromatography followed by UV-detection at 238 nm. Apparatus: Dionex HPLC-UV system comprising of a P680 pump, a TCC-100 column compartment with thermostat, a WPS-3000 auto sampler and a UVD34OU PDA detector.
(§2) pH values mentioned in the description and claims of the present application were measured using a Radiometer PHM82 standard pH meter equipped with a Mettler Toledo Inlab 412 pH electrode (electrolyte 9823). Equilibration was carried out at 20±1° C. using a Merck pH 4.00 buffer (art. nr. 1.09435.1000) and a Merck pH 7.00 buffer (art. nr. 1.09439.1000).
Starting material for this experiment was broth filtrate, obtained after ultra-filtration of broth obtained by fermentation of Penicillium chrysogenum transformant T1.48 as described in Example 4 of WO 2007/147827 using a 50 nm poly-sulfone membrane. The filtrate (2 liter, containing 1.2 g/l pravastatin and 0.37 g/l compactin) was extracted twice with isobutyl acetate (2×1 liter) at pH 4. For a clear phase separation, the organic phases were filtered through a Seitz Z-2000 filter plate. The organic phases were combined and washed with water (500 ml), giving isobutyl acetate extract (1960 ml) which was concentrated to 100 ml under vacuum at T<40° C. The concentrate was decolorized using a coal cartridge filled with Cuno C55 carbon (1.8 g carbon; diameter of carbon plate 18 cm^2). After rinsing a clear solution (150 ml) was obtained containing ˜12 g/l pravastatin and 3.8 g/l compactin. This solution was extracted three times with water (3×150 ml) at pH 6. The pH was adjusted with 25% ammonia. The aqueous and organic phases were analyzed with HPLC (Table 3). As can be calculated, after the second back-extraction the total extraction yield of pravastatin in the combined aqueous phases was 97.6% pravastatin and after the third back-extraction the total extraction yield of pravastatin in the combined aqueous phases was 99.6%. The ratio pravastatin:compactin was 3:1 in the starting mixture, 45:1 after one back-extraction, 25:1 after two back-extractions and 17:1 after three back-extractions.

[2] = Batch-wise single stage back-extraction from methyl isobutyl ketone into water, distribution coefficient by HPLC
Procedure: as §1, §2
One of the portions of supernatant (800 ml) obtained in Example 1, methyl isobutyl ketone (800 ml) and dicalite 448 (20 g) were mixed and the pH was adjusted to 4 with 6N sulfuric acid. The mixture was filtered over a Seitz Z-2000 filter plate. The phases of the filtrate were separated and the organic phase was washed once with water (400 ml), giving a methyl isobutyl ketone extract (750 ml) from which eight portions of 80 ml were taken. Each portion was mixed with an equal volume of water at a certain pH, varying from 4.5 to 8. After mixing, the phases were separated and analyzed by HPLC.

[3] = Multi stage cross-current back-extraction from ethyl acetate at pH 5.9, distribution coefficient by HPLC; details: water/ethyl acetate
Procedure: as §1, §2
Starting material for this experiment was broth filtrate, obtained after ultra-filtration of broth obtained by fermentation of Penicillium chrysogenum transformant T1.48 as described in Example 4 of WO 2007/147827 using a 50 nm poly-sulfone membrane. The filtrate (5.25 liter, containing 1.2 g/l pravastatin and 0.37 g/l compactin) was extracted twice with ethyl acetate (2×2.5 liter) at pH 4. For a clear phase separation, the organic phases were filtered through a Seitz Z-2000 filter plate. The extraction yields were 90.6% and 8.3% respectively, so the overall extraction yield was 98.9%. The organic phases were combined and washed with water (2.5 liter), giving ethyl acetate extract (4.65 liter, yield over the wash step 97%) which was concentrated to 250 ml under vacuum at T<40° C., giving a clear solution containing ˜25 g/l pravastatin. This solution was extracted three times with water (3×250 ml) at pH 5.9. The pH was adjusted with 4N sodium hydroxide. The aqueous and organic phases were analyzed with HPLC (Table 4). As can be calculated, after the second back-extraction the total extraction yield of pravastatin in the combined aqueous phases was 91% pravastatin and after the third back-extraction the total extraction yield of pravastatin in the combined aqueous phases was 96%. The ratio pravastatin:compactin was 3:1 in the starting mixture, 26:1 after one back-extraction, 19:1 after two back-extractions and 17:1 after three back-extractions.

[4] = Batch-wise single stage back-extraction from ethyl acetate into water, distribution coefficient by HPLC
Procedure: as §1, §2
A broth obtained by fermentation of Penicillium chrysogenum transformant T1.48 as described in Example 4 of WO 2007/147827 (2 liter, containing 2.5 g/kg pravastatin and 0.8 g/kg compactin) was centrifuged and the supernatant was divided into 2 portions of 800 ml. One of these portions of supernatant (800 ml), ethyl acetate (800 ml) and dicalite 448 (20 g) were mixed and the pH was adjusted to 4 with 6N sulfuric acid. The mixture was filtered over a Seitz Z-2000 filter plate. The phases of the filtrate were separated and the organic phase was washed once with water (400 ml), giving an ethyl acetate extract (700 ml) which was divided into eight portions of 80 ml and one of 60 ml. Each portion was mixed with an equal volume of water at a certain pH, varying from 4.5 to 8. After mixing, the phases were separated and analyzed by HPLC.

Row | SMILES | Distribution coefficient (CAqueous phase/COrganic phase) ([1]; pH 6, 1st extraction) | Distribution coefficient (CAqueous phase/COrganic phase) ([1]; pH 6, 2nd extraction) | Distribution coefficient (CAqueous phase/COrganic phase) ([1]; pH 6, 3rd extraction) | Distribution coefficient (CAqueous phase/COrganic phase) ([2]; pH 4.5) | Distribution coefficient (CAqueous phase/COrganic phase) ([2]; pH 5) | Distribution coefficient (CAqueous phase/COrganic phase) ([2]; pH 5.5) | Distribution coefficient (CAqueous phase/COrganic phase) ([2]; pH 6) | Distribution coefficient (CAqueous phase/COrganic phase) ([2]; pH 6.5) | Distribution coefficient (CAqueous phase/COrganic phase) ([2]; pH 7) | Distribution coefficient (CAqueous phase/COrganic phase) ([2]; pH 7.5) | Distribution coefficient (CAqueous phase/COrganic phase) ([2]; pH 8) | Distribution coefficient (CAqueous phase/COrganic phase) ([3]; pH 5.9, 1st extraction) | Distribution coefficient (CAqueous phase/COrganic phase) ([3]; pH 5.9, 2nd extraction) | Distribution coefficient (CAqueous phase/COrganic phase) ([3]; pH 5.9, 3rd extraction) | Distribution coefficient (CAqueous phase/COrganic phase) ([4]; pH 4.5) | Distribution coefficient (CAqueous phase/COrganic phase) ([4]; pH 5) | Distribution coefficient (CAqueous phase/COrganic phase) ([4]; pH 5.5) | Distribution coefficient (CAqueous phase/COrganic phase) ([4]; pH 6) | Distribution coefficient (CAqueous phase/COrganic phase) ([4]; pH 6.25) | Distribution coefficient (CAqueous phase/COrganic phase) ([4]; pH 6.5) | further results
1 | CC[C@H](C)C(=O)O[C@H]1CCC=C2C=C[C@H](C)[C@H](CC[C@@H](O)C[C@@H](O)CC(=O)[O-])[C@H]21.[Na+] [Comp, compactin] | 0.06 | 0.07 | 0.07 | 0.0 | 0.0 | 0.0 | 0.0 | 0.1 | 0.2 | 0.9 | 3.3 | 0.08 | 0.06 | 0.03 | 0.0 | 0.0 | 0.0 | 0.0 | 0.0 | 0.1 | Distribution coefficient (CAqueous phase/COrganic phase) ([4]; pH 7): 0.3; Distribution coefficient (CAqueous phase/COrganic phase) ([4]; pH 7.5): 0.8; Distribution coefficient (CAqueous phase/COrganic phase) ([4]; pH 8): 2.9
2 | CC[C@H](C)C(=O)O[C@H]1C[C@H](O)C=C2C=C[C@H](C)[C@H](CC[C@@H](O)C[C@@H](O)CC(=O)[O-])[C@H]21.[Na+] [Prava, pravastatin] | 4.8 | 5.9 | 5.2 | 0.2 | 0.2 | 0.6 | 1.4 | 4.0 | 12.0 | 37.5 | 83.8 | 1.5 | 1.9 | 0.7 | 0.1 | 0.2 | 0.4 | 1.2 | 1.9 | 3.5 | Distribution coefficient (CAqueous phase/COrganic phase) ([4]; pH 7): 10.3; Distribution coefficient (CAqueous phase/COrganic phase) ([4]; pH 7.5): 27.4; Distribution coefficient (CAqueous phase/COrganic phase) ([4]; pH 8): 94.1
